Laboratory results reported in US20240158446A1, “CYCLIC COMPOUND HAVING SELECTIVE INHIBITORY ACTION ON KRAS OVER HRAS AND NRAS” (CHUGAI SEIYAKU KABUSHIKI KAISHA, priority 2021, published 2024).
pKd: −log10 of the molar value. Where a SMILES comes first, the peptide text is derived from it. Bridges are numbered along the chain shown (N, C = ends). [ ]: non-standard residue; d: D form. The star is where a group is joined. hPhe(3-Cl-4-CF3) = N[C@@H](CCc1ccc(C(F)(F)F)c(Cl)c1)C(=O)O; NPrPhe(4-CF3) = CCCN[C@@H](Cc1ccc(C(F)(F)F)cc1)C(=O)O; NMeGly(cPent) = CN[C@H](C(=O)O)C1CCCC1; NMeNva(3-Et) = CCC(CC)[C@H](NC)C(=O)O; NMeD = CN[C@@H](CC(=O)O)C(=O)O; NMeL = CN[C@@H](CC(C)C)C(=O)O; Morpholide = C1CN(*)CCO1; NMeA = CN[C@@H](C)C(=O)O; Ac5c = NC1(C(=O)O)CCCC1; Aze = O=C(O)[C@@H]1CCN1; Ac4c = NC1(C(=O)O)CCC1; NEtG = CCNCC(=O)O; Sar = CNCC(=O)O

Key:
[1] = test system: human lung cancer strain NCI-H441; test: cells; conditions: NCI-H441, 96 h, read-out: NCI-H441 IC50 (nM), NCI-H441 cell proliferation, 4 days, CellTiter-Glo;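 also: cell proliferation inhibition after four days measured by CellTiter-Glo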
[2] = target: GDP-bound NRAS wild-type protein (Homo sapiens, UniProt P01111); test: Binding to NRAS by surface plasmon resonance (SPR), Single Cycle Kinetics; conditions: ratio of KD for GDP-bound NRAS wild-type protein to KD for KRAS, SPR
GDP-bound NRAS wild-type protein, sequence (P01111 whole entry): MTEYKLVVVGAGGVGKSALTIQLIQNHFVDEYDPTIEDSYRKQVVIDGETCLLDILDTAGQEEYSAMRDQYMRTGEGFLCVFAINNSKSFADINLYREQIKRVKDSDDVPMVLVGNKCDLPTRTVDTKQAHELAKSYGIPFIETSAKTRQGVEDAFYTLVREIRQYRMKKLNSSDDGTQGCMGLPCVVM

[3] = target: GDP-bound HRAS wild-type protein (Homo sapiens, UniProt P01112); test: Binding to HRAS by surface plasmon resonance (SPR), Single Cycle Kinetics; conditions: ratio of KD for GDP-bound HRAS wild-type protein to KD for KRAS, SPR
GDP-bound HRAS wild-type protein, sequence (P01112 whole entry): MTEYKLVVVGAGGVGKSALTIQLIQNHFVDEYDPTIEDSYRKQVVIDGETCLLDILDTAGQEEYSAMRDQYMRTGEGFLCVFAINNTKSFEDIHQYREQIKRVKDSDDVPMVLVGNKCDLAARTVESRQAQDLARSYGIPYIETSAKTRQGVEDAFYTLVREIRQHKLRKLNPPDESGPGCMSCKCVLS

[4] = target: GDP-bound KRAS wild-type protein (Homo sapiens, UniProt P01116); test: Binding to KRAS by surface plasmon resonance (SPR), Single Cycle Kinetics; conditions: SPR, Single Cycle Kinetics, GDP-bound KRAS wild-type protein; read-out: KRAS KD
GDP-bound KRAS wild-type protein, sequence (P01116 whole entry): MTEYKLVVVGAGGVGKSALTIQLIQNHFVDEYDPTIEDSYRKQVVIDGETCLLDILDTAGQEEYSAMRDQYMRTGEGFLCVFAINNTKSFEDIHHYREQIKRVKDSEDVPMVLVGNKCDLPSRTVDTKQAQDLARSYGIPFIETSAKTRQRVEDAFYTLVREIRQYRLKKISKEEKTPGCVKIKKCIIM

| SMILES | IC50 [1] [nM] | pKd [4] | NRAS/KRAS (KD ratio) [2] | HRAS/KRAS (KD ratio) [3] |
| --- | --- | --- | --- | --- |
| CCCN(C)C(=O)[C@@H]1CC(=O)N(C)[C@@H](C)C(=O)N[C@@H]([C@@H](C)CC)C(=O)N(C)CC(=O)N(C)[C@H]2C/C=C\CCN(C2=O)[C@@H](Cc2ccc(C(F)(F)F)cc2)C(=O)N(C)CC(=O)N[C@@H](CCc2cc(F)c(C(F)(F)F)c(F)c2)C(=O)N2C[C@H](F)C[C@H]2C(=O)NC2(CC(C)(C)C2)C(=O)N(C)[C@@H](C2CCCC2)C(=O)N1C [PP1663] | 3.6 | 10.42 | AA (a compound having 20 or more is denoted as AA) | A (a compound having 10 or more and less than 20 is denoted as A) |
| CCO[C@@H]1C[C@H]2C(=O)NC3(CC(C)(C)C3)C(=O)N(C)[C@@H](C3CCCC3)C(=O)N(C)[C@H](C(=O)N(C)CC)CC(=O)N(C)[C@@H](CC)C(=O)N[C@@H]([C@@H](C)CC)C(=O)N(C)CC(=O)N(C)[C@H]3C/C=C\CCN(C3=O)[C@@H](Cc3ccc(C(F)(F)F)cc3)C(=O)N(C)CC(=O)N[C@@H](CCc3ccc(C(F)(F)F)c(OC)c3)C(=O)N2C1 [PP1653] | 1.6 | 10.01 | A (a compound having 10 or more and less than 20 is denoted as A) | A (a compound having 10 or more and less than 20 is denoted as A) |
| CCO[C@@H]1C[C@H]2C(=O)NC3(CC(C)(C)C3)C(=O)N(C)[C@@H](C3CCCC3)C(=O)N(C)[C@H](C(=O)N(C)CC)CC(=O)N(C)[C@@H](COC)C(=O)N[C@@H]([C@@H](C)CC)C(=O)N(C)CC(=O)N(C)[C@H]3C/C=C\CCN(C3=O)[C@@H](Cc3ccc(C(F)(F)F)cc3)C(=O)N(C)CC(=O)N[C@@H](CCc3cc(F)c(C(F)(F)F)c(F)c3)C(=O)N2C1 [PP1671] | 3 | 10.11 | A (a compound having 10 or more and less than 20 is denoted as A) | A (a compound having 10 or more and less than 20 is denoted as A) |
| CCC[C@H]1C(=O)N[C@@H]([C@@H](C)CC)C(=O)N(C)CC(=O)N(C)[C@H]2C/C=C\CCN(C2=O)[C@@H](Cc2ccc(C)cc2)C(=O)N(C)CC(=O)N[C@@H](CCc2ccc(C(F)(F)F)c(Cl)c2)C(=O)N2C[C@H](OCC)C[C@H]2C(=O)NC2(CCC2)C(=O)N(C)[C@@H](C2CCCC2)C(=O)N(C)[C@H](C(=O)N(C)CC)CC(=O)N1C [PP1895] | 15.6 | 9.89 | A (a compound having 10 or more and less than 20 is denoted as A) | B (a compound having 3 or more and less than 10 is denoted as B) |
| CC[C@H](C)[C@@H]1NC(=O)[C@H](CC2CCC2)N(C)C(=O)C[C@@H](C(=O)N(C)C)N(C)C(=O)[C@H](C2CCCC2)N(C)C(=O)C2(CC(C)(C)C2)NC(=O)[C@@H]2CC(F)(F)CN2C(=O)[C@H](CCc2cc(F)c(C(F)(F)F)c(F)c2)NC(=O)CN(C)C(=O)[C@H](Cc2ccc(C(F)(F)F)cc2)N2CC/C=C\C[C@@H](C2=O)N(C)C(=O)CN(C)C1=O [PP1716] | 3.8 | 10.00 | AA (a compound having 20 or more is denoted as AA) | A (a compound having 10 or more and less than 20 is denoted as A) |
| CCO[C@@H]1C[C@H]2C(=O)NC3(CC(C)(C)C3)C(=O)N(C)[C@@H](C3CCCC3)C(=O)N(C)[C@H](C(=O)N(C)C)CC(=O)N(C)[C@@H](CC(F)(F)F)C(=O)N[C@@H]([C@@H](C)CC)C(=O)N(C)CC(=O)N(C)[C@H]3C/C=C\CCN(C3=O)[C@@H](Cc3ccc(C(F)(F)F)cc3)C(=O)N(C)CC(=O)N[C@@H](CCc3cc(F)c(C(F)(F)F)c(F)c3)C(=O)N2C1 [PP1644] | 2.7 | 10.42 | A (a compound having 10 or more and less than 20 is denoted as A) | A (a compound having 10 or more and less than 20 is denoted as A) |
| CC[C@H](C)[C@@H]1NC(=O)[C@H](C2CC2)N(C)C(=O)C[C@@H](C(=O)N(C)CC)N(C)C(=O)[C@H](C2CCCC2)N(C)C(=O)C2(CC(C)(C)C2)NC(=O)[C@@H]2C[C@H](C)CN2C(=O)[C@H](CCc2ccc(C(F)(F)F)c(OC)c2)NC(=O)CN(C)C(=O)[C@H](Cc2ccc(C(F)(F)F)cc2)N2CC/C=C\C[C@@H](C2=O)N(C)C(=O)CN(C)C1=O [PP2007] | 14.9 | 9.85 | AA (a compound having 20 or more is denoted as AA) | B (a compound having 3 or more and less than 10 is denoted as B) |
| CCO[C@@H]1C[C@H]2C(=O)N(C)C3(CCCC3)C(=O)N(C)[C@@H](C3CCCC3)C(=O)N(C)[C@H](C(=O)N(C)C)CC(=O)N(C)[C@@H](CC)C(=O)N[C@@H]([C@@H](C)CC)C(=O)N(C)CC(=O)N(C)[C@H]3C/C=C\CCN(C3=O)[C@@H](Cc3ccc(C)cc3)C(=O)N(C)CC(=O)N[C@@H](CCc3cc(F)c(C(F)(F)F)c(F)c3)C(=O)N2C1 [PP1806] | 4 | 10.22 | A (a compound having 10 or more and less than 20 is denoted as A) | B (a compound having 3 or more and less than 10 is denoted as B) |

The next lines start with results.

| IC50 [1] [nM] | pKd [4] | SMILES | NRAS/KRAS (KD ratio) [2] | HRAS/KRAS (KD ratio) [3] |
| --- | --- | --- | --- | --- |
| 6 | 9.80 | CCCOC[C@H]1C(=O)N[C@@H]([C@@H](C)CC)C(=O)N(C)CC(=O)N(C)[C@H]2C/C=C\CCN(C2=O)[C@@H](Cc2ccc(C(F)(F)F)cc2)C(=O)N(C)CC(=O)N[C@@H](CCc2cc(F)c(C(F)(F)F)c(F)c2)C(=O)N2C[C@H](OCC)C[C@H]2C(=O)NC2(CC(C)(C)C2)C(=O)N(C)[C@@H](C2CCCC2)C(=O)N(C)[C@H](C(=O)N(C)CCC)CC(=O)N1C [PP1673] | A (a compound having 10 or more and less than 20 is denoted as A) | A (a compound having 10 or more and less than 20 is denoted as A) |
| 13.5 | 9.12 | CCCN1C(=O)CN(CC)C(=O)CNC(=O)[C@H]([C@@H](C)CC)NC(=O)[C@H](CC(C)C)N(C)C(=O)C[C@@H](C(=O)N2CCOCC2)N(C)C(=O)[C@H](C2CCCC2)N(C)C(=O)C2(CCCC2)NC(=O)[C@@H]2CCCN2C(=O)[C@H](CCc2ccc(C(F)(F)F)c(Cl)c2)NC(=O)CN(C)C(=O)[C@@H]1Cc1ccc(C(F)(F)F)cc1 [PP1968] ([NMeL]IG[NEtG][NPrPhe(4-CF3)][Sar][hPhe(3-Cl-4-CF3)]P[Ac5c][NMeGly(cPent)][NMeD]-Morpholide; lactam N-11) | C (A compound having a KD ratio of 0.1 or more and less than 3 is denoted as C) | C (A compound having a KD ratio of 0.1 or more and less than 3 is denoted as C) |
| 4.1 | 10.00 | CC[C@H](C)[C@@H]1NC(=O)[C@H](CC(F)(F)F)N(C)C(=O)C[C@@H](C(=O)N(C)C)N(C)C(=O)[C@H](C2CCCC2)N(C)C(=O)C2(CC(C)(C)C2)NC(=O)[C@@H]2CC(F)(F)CN2C(=O)[C@H](CCc2cc(F)c(C(F)(F)F)c(F)c2)NC(=O)CN(C)C(=O)[C@H](Cc2ccc(C(F)(F)F)cc2)N2CC/C=C\C[C@@H](C2=O)N(C)C(=O)CN(C)C1=O [PP1710] | A (a compound having 10 or more and less than 20 is denoted as A) | B (a compound having 3 or more and less than 10 is denoted as B) |
| 18.5 | 9.77 | CCC[C@H]1C(=O)N[C@@H]([C@@H](C)CC)C(=O)N(C)CC(=O)N(C)[C@H]2C/C=C\CCN(C2=O)[C@@H](Cc2ccc(C)cc2)C(=O)N(C)CC(=O)N[C@@H](CCc2ccc(C(F)(F)F)c(Cl)c2)C(=O)N2C[C@@H](C)C[C@H]2C(=O)NC2(CC(C)(C)C2)C(=O)N(C)[C@@H](C2CCCC2)C(=O)N(C)[C@H](C(=O)N(C)CC)CC(=O)N1C [PP1893] | A (a compound having 10 or more and less than 20 is denoted as A) | B (a compound having 3 or more and less than 10 is denoted as B) |
| 2.5 | 10.02 | CCCN(C)C(=O)[C@@H]1CC(=O)N(C)[C@@H](CC)C(=O)N[C@@H]([C@@H](C)CC)C(=O)N(C)CC(=O)N(C)[C@H]2C/C=C\CCN(C2=O)[C@@H](Cc2ccc(C(F)(F)F)cc2)C(=O)N(C)CC(=O)N[C@@H](CCc2cc(F)c(C(F)(F)F)c(F)c2)C(=O)N2C[C@H](OCC)C[C@H]2C(=O)NC2(CCC2)C(=O)N(C)[C@@H](C2CCCC2)C(=O)N1C [PP1699] | A (a compound having 10 or more and less than 20 is denoted as A) | A (a compound having 10 or more and less than 20 is denoted as A) |
| 8 | 9.66 | CCCN1C(=O)[C@@H]2CCN2C(=O)[C@H](C)N(C)C(=O)[C@H]([C@@H](C)CC)NC(=O)[C@H](CC(C)C)N(C)C(=O)C[C@@H](C(=O)N(C)C)N(C)C(=O)[C@H](C(CC)CC)N(C)C(=O)C2(CCC2)NC(=O)[C@@H]2CCCN2C(=O)[C@H](CCc2ccc(C(F)(F)F)c(Cl)c2)NC(=O)CN(C)C(=O)[C@@H]1Cc1ccc(C(F)(F)F)cc1 [PP1961] ([NMeL]I[NMeA][Aze][NPrPhe(4-CF3)][Sar][hPhe(3-Cl-4-CF3)]P[Ac4c][NMeNva(3-Et)][NMeD]-NMe2; lactam N-11) | C (A compound having a KD ratio of 0.1 or more and less than 3 is denoted as C) | C (A compound having a KD ratio of 0.1 or more and less than 3 is denoted as C) |
| 4.8 | 10.13 | CCC[C@H]1C(=O)N[C@@H]([C@@H](C)CC)C(=O)N(C)CC(=O)N(C)[C@H]2C/C=C\CCN(C2=O)[C@@H](Cc2ccc(C)cc2)C(=O)N(C)CC(=O)N[C@@H](CCc2ccc(C(F)(F)F)c(OC)c2)C(=O)N2C[C@H](OCC)C[C@H]2C(=O)NC2(CC(C)(C)C2)C(=O)N(C)[C@@H](C2CCCC2)C(=O)N(C)[C@H](C(=O)N(C)C)CC(=O)N1C [PP1892] | A (a compound having 10 or more and less than 20 is denoted as A) | B (a compound having 3 or more and less than 10 is denoted as B) |
